Key:
[1] = tested on: p53 wild-type cancer cells (A549, A375, H460); experiment: Cell cycle arrest and senescence after ionizing radiation plus M3814; assay type: cell-based
[2] = tested on: human PBMC-derived immune cells; experiment: Effect of culture media from M3814-induced senescent cells on immune cells (live imaging); assay type: cell-based
Experimental: (§1) These substantial changes in gene expression were built gradually and correlated with the development of senescence phenotype. Several proteins from the induced subset were measured in the cell media (Meso Scale Discovery) and confirmed that they are secreted by senescent cells in the absence of M3814.

[3] = target: DNA-PK (Homo sapiens, UniProt P78527); experiment: Crystallographic and enzyme kinetics studies; assay type: biochemical
Text: DNA-PK, together with five additional protein factors (Ku70, Ku80, XRCC4, Ligase IV and Artemis) plays a critical role in the repair of DSB via NHEJ. Kinase activity of DNA-PK is essential for proper and timely DNA repair and the long-term survival of cancer cells.

[4] = tested on: murine colon tumor model MC38; experiment: M3814 and avelumab in syngeneic MC38 tumor model (Example 1); assay type: in vivo, C57BL6/N mice; conditions: M3814 150 mg/kg orally once daily, avelumab 400 μg/mouse intravenously on days 3, 6 and 9; for median time the tumors needed to double in size as compared to their initial volume at day 0: Kaplan-Meyer evaluation
Text: This model allows the use of immunocompetent mice, a necessary requirement to study the T-cell mediated antitumor effect of Avelumab. The experimental set up included the induction of MC38 tumors in C57BL6/N mice by injection of 1×10^6 tumor cells into the right flank of the animals. Tumor growth was followed over time by measuring length and width using a caliper. When tumors were established to an average size of 50-100 mm^3, mice were subdivided in 4 treatment groups with 10 animals each, and treatment started. This day was defined as day 0. Group 1 received vehicle treatment. Group 2 received M3814 orally once daily at 150 mg/kg in a volume of 10 ml/kg. Group 3 received avelumab intravenously once daily at 400 μg/mouse in a volume of 5 ml/kg on days 3, 6 and 9. Group 4 received M3814 orally once daily at 150 mg/kg in a volume of 10 ml/kg and avelumab intravenously once daily at 400 μg/mouse in a volume of 5 ml/kg on days 3, 6 and 9.

[5] = tested on: A549 and A375 cells; experiment: Nanostring PanCancer Immune panel mRNA analysis of IR/M3814 induced senescent cells; assay type: cell-based
Experimental: as §1

[6] = 10 mg/kg dose; cited from earlier work

| Molecule | reversibility of senescence phenotype following compound removal ([1]; A549 cells, live cell imaging and BrdU labeling) | time to typical senescence phenotype (large/flat morphology, β-Gal staining) ([1]; IR 2-5Gy plus sustained M3814) | ATM dependent signaling, including CHK2 and p53-dependent cell cycle arrest ([1]; in the presence of DDSBs) | cell cycle arrest in isogenic p53-null cells ([1]; isogenic p53-null A549 cells, IR plus M3814) | cell cycle effect ([1]; proliferating p53 wild-type A549, A375, H460, single dose of ionizing radiation (2-5Gy) and sustained exposure to M3814) | immunomodulatory effect of culture media from M3814-induced senescent cells [2] | inhibition of DNA-PK [3] | median time the tumors needed to double in size as compared to their initial volume at day 0 [4] [days] | T/C values calculated at day 13 [4] [%] | upregulation of eighteen immune response genes compared to controls [5] | receptor occupancy [6] | tolerability [6] |
| --- | --- | --- | --- | --- | --- | --- | --- | --- | --- | --- | --- | --- |
| COc1ccc([C@@H](O)c2cc(-c3ncnc4cc(N5CCOCC5)ccc34)c(F)cc2Cl)nn1 [Compound M3814, (S)-[2-chloro-4-fluoro-5-(7-morpholin-4-yl-quinazolin-4-yl)-phenyl]-(6-methoxypyridazin-3-yl)-methanol] | not reversible | 4-7 days | enhanced activation of the ATM dependent signaling | lost the ability to fully arrest their cell cycle | complete cell cycle block | increased immunomodulatory effect | potent and selective ATP-competitive inhibitor | 10 | 47 | 3-150 fold |  |  |
| avelumab: fully human monoclonal antibody of the immunoglobulin (Ig) G1 isotype; selectively binds to PD-L1 |  |  |  |  |  |  |  | 13 | 60 |  | excellent receptor occupancy | well tolerated |
